Source: US11325955B2, “Stabilized anti-microbial peptides for the treatment of antibiotic-resistant bacterial infections” (priority 2017, dated 2022)
Values after ≈ are worked out from the molar mass of the structure shown. Read-outs that look alike come from different tables or passages of the source. Positions of bridges follow the written chain, without caps; N, C: chain ends. Non-standard residues stand in square brackets, D forms with d. Residues, ends and D or L forms follow the SMILES beside them. S5 = C=CCCC[C@](C)(N)C(=O)O; Nle = CCCC[C@H](N)C(=O)O

Assays:
[1] = system: primary human renal proximal tubule epithelial cells (pRPTECs); conditions: 24-hour incubation, FIG. 1
Method: In one embodiment, pRPTECs are seeded at a density of 10,000 cells per well on 96 well plates and incubated for 48 hours at 37° C. Cells are then treated with different concentrations of the StAMP and incubated for another 24-to-48 hour period. Cell viability is then determined and/or lactate dehydrogenase (LDH) release is measured.
Briefly, pRPTECs in complete growth cell medium were seeded in a 96 well plate at a density of 10,000 cells per well and incubated at 37° C. for 48 hours. Complete medium was then removed and replaced with a toxicity assay medium to which various concentrations of StAMP were added. Cells were then further incubated for 24 to 48 hours after which cell medium was collected and assayed for the presence of Lactate Dehydrogenase (LDH) using a Cytotoxicity Detection Kit (LDH) (Roche).

[2] = system: E coli; assay type: cell-based
Method: (§1) The following microbroth dilution protocol was adapted to determine the minimum inhibitory concentration (MIC) of each peptide. First, Mueller-Hinton broth (MHB) was passed through an anion exchange column to remove polyanionic species and generate refined MHB. […] Briefly, bacterial cells were grown overnight in refined MHB at 37° C. and then diluted and allowed to grow again for several hours. Serial dilutions of peptide stocks in water (10 μl) were prepared using clear round-bottom polypropylene 96-well plates. Then 90 μl of bacteria in refined MHB was added to give a final inoculum of 5×10^5 CFU/ml. The plates were then covered with porous tape to reduce evaporation, and incubated for 20-24 hours at 37° C. The MIC is the minimum peptide concentration at which no visible growth was observed.

[3] = system: S aureus; assay type: cell-based
Method: as §1

[4] = system: P aeruginosa; assay type: cell-based
Method: as §1

[5] = system: B cereus; assay type: cell-based
Method: as §1

[6] = system: A. baumannii clinical isolates; assay type: cell-based
Method: (§2) StAMPs were screened against a panel of MDR clinical samples obtained from the Antimicrobial Resistance Isolate Bank of the Centers for Disease Control and Prevention (Atlanta, Ga.).
as §1
(§3) The first three StAMPs of Table 2 in Example 3 were then tested against 39 clinical isolates of A. baumannii with various degrees of colistin resistance (Table 3, 4).

[7] = system: E. coli clinical isolates that harbor the MCR-1 plasmid; assay type: cell-based
Method: as §2, §1, §3

With `CC(C)[C@@H]1NC(=O)[C@@](C)(NC(=O)[C@H](C)NC(=O)[C@H](CCCCN)NC(=O)CNC(=O)[C@H](Cc2ccccc2)NC(=O)[C@H](CCCCN)NC(=O)[C@H](CCCCN)NC(=O)[C@H](CCCCN)NC(=O)[C@H](CO)NC(=O)[C@H](Cc2c[nH]cn2)NC(=O)[C@]2(C)CCCC=CCCC[C@](C)(NC(=O)CN)C(=O)NCC(=O)N[C@@H](CCCCN)C(=O)N[C@@H](Cc3ccccc3)C(=O)N2)CCCC=CCCC[C@@](C)(C(=O)N[C@@H](C)C(=O)N[C@@H](CC(N)=O)C(=O)N[C@@H](CO)C(N)=O)NC(=O)[C@H](CCC(=O)O)NC(=O)CNC1=O` [Mag(i+4)1,15(A9K, B21A), GXGKFXHSKKKFGKAXVGEXANS] (H-G[S5]GKF[S5]HSKKKFGKA[S5]VGE[S5]ANS-NH2; staple 2-6, 16-20) the “pRPTEC lysis (% LDH release) relative to Mag(i+4)1,15(A9K)” value [1] was “significantly attenuated pRPTEC lysis”, the “MIC E coli” value [2] was 6.2 µg/mL (≈ 2.5 µM) and the “MIC S aureus” value [3] was >50 µg/mL. The “MIC P aeruginosa” value [4] was 8.8 µg/mL (≈ 3.55 µM) and the “MIC B cereus” value [5] was 50 µg/mL (≈ 20.2 µM).

For `CCCC[C@H](NC(=O)[C@]1(C)CCCC=CCCC[C@](C)(NC(=O)[C@H](C)NC(=O)[C@H](CCCCN)NC(=O)CNC(=O)[C@H](Cc2ccccc2)NC(=O)[C@H](CCCCN)NC(=O)[C@H](CCCCN)NC(=O)[C@H](CCCCN)NC(=O)[C@H](CO)NC(=O)[C@H](Cc2c[nH]cn2)NC(=O)[C@]2(C)CCCC=CCCC[C@](C)(NC(=O)CN)C(=O)NCC(=O)N[C@@H](Cc3c[nH]cn3)C(=O)N[C@@H](Cc3ccccc3)C(=O)N2)C(=O)N[C@@H](C(C)C)C(=O)NCC(=O)N[C@@H](CCC(=O)O)C(=O)N1)C(=O)N[C@@H](CC(N)=O)C(=O)N[C@@H](CO)C(N)=O` [Mag(i+4)1,15(A9K, K4H), GXGHFXHSKKKFGKAXVGEXBNS] (H-G[S5]GHF[S5]HSKKKFGKA[S5]VGE[S5][Nle]NS-NH2; staple 2-6, 16-20; N-terminus and C-terminus assumed), the “MIC E coli” value [2] was 3.1 µg/mL (≈ 1.23 µM), the “MIC S aureus” value [3] was >50 µg/mL and the “MIC P aeruginosa” value [4] was 6.2 µg/mL (≈ 2.45 µM). For the same molecule, the “MIC B cereus” value [5] was 25 µg/mL (≈ 9.89 µM).

`CCCC[C@H](NC(=O)[C@]1(C)CCCC=CCCC[C@](C)(NC(=O)[C@H](C)NC(=O)[C@H](CCCCN)NC(=O)CNC(=O)[C@H](Cc2ccccc2)NC(=O)[C@H](CCCCN)NC(=O)[C@H](Cc2c[nH]cn2)NC(=O)[C@H](CCCCN)NC(=O)[C@H](CO)NC(=O)[C@H](Cc2c[nH]cn2)NC(=O)[C@]2(C)CCCC=CCCC[C@](C)(NC(=O)CN)C(=O)NCC(=O)N[C@@H](Cc3c[nH]cn3)C(=O)N[C@@H](Cc3ccccc3)C(=O)N2)C(=O)N[C@@H](C(C)C)C(=O)NCC(=O)N[C@@H](CCC(=O)O)C(=O)N1)C(=O)N[C@@H](CC(N)=O)C(=O)N[C@@H](CO)C(N)=O` [Mag(i+4)1,15(A9K, K4H, K10H), GXGHFXHSKHKFGKAXVGEXBNS] (H-G[S5]GHF[S5]HSKHKFGKA[S5]VGE[S5][Nle]NS-NH2; staple 2-6, 16-20) was tested, and the “MIC E coli” value [2] was 3.1 µg/mL (≈ 1.22 µM), the “MIC S aureus” value [3] was >50 µg/mL and the “MIC P aeruginosa” value [4] was 50 µg/mL (≈ 19.7 µM). The “MIC B cereus” value [5] was 50 µg/mL (≈ 19.7 µM).

With `CCCC[C@H](NC(=O)[C@]1(C)CCCC=CCCC[C@](C)(NC(=O)[C@H](C)NC(=O)[C@H](CCCCN)NC(=O)CNC(=O)[C@H](Cc2ccccc2)NC(=O)[C@H](Cc2c[nH]cn2)NC(=O)[C@H](Cc2c[nH]cn2)NC(=O)[C@H](CCCCN)NC(=O)[C@H](CO)NC(=O)[C@H](Cc2c[nH]cn2)NC(=O)[C@]2(C)CCCC=CCCC[C@](C)(NC(=O)CN)C(=O)NCC(=O)N[C@@H](Cc3c[nH]cn3)C(=O)N[C@@H](Cc3ccccc3)C(=O)N2)C(=O)N[C@@H](C(C)C)C(=O)NCC(=O)N[C@@H](CCC(=O)O)C(=O)N1)C(=O)N[C@@H](CC(N)=O)C(=O)N[C@@H](CO)C(N)=O` [Mag(i+4)1,15(A9K, K4H, K10H, K11H), GXGHFXHSKHHFGKAXVGEXBNS] (H-G[S5]GHF[S5]HSKHHFGKA[S5]VGE[S5][Nle]NS-NH2; staple 2-6, 16-20) the “MIC E coli” value [2] was 17.7 µg/mL (≈ 6.95 µM), the “MIC S aureus” value [3] was >50 µg/mL and the “MIC P aeruginosa” value [4] was 50 µg/mL (≈ 19.6 µM). For the same molecule, the “MIC B cereus” value [5] was >50 µg/mL.

In the case of `CCCC[C@H](NC(=O)[C@]1(C)CCCC=CCCC[C@](C)(NC(=O)[C@H](C)NC(=O)[C@H](CCCCN)NC(=O)CNC(=O)[C@H](Cc2ccccc2)NC(=O)[C@H](CCCCN)NC(=O)[C@H](CCCCN)NC(=O)[C@H](CCCCN)NC(=O)[C@H](CO)NC(=O)[C@H](Cc2c[nH]cn2)NC(=O)[C@]2(C)CCCC=CCCC[C@](C)(NC(=O)CN)C(=O)NCC(=O)N[C@@H](CCCNC(=N)N)C(=O)N[C@@H](Cc3ccccc3)C(=O)N2)C(=O)N[C@@H](C(C)C)C(=O)NCC(=O)N[C@@H](CCC(=O)O)C(=O)N1)C(=O)N[C@@H](CC(N)=O)C(=O)N[C@@H](CO)C(N)=O` [Mag(i+4)1,15(A9K, K4R), GXGRFXHSKKKFGKAXVGEXBNS] (H-G[S5]GRF[S5]HSKKKFGKA[S5]VGE[S5][Nle]NS-NH2; staple 2-6, 16-20; N-terminus and C-terminus assumed), the “MIC E coli” value [2] is reported as 3.1 µg/mL (≈ 1.22 µM), the “MIC S aureus” value [3] is reported as >50 µg/mL and the “MIC P aeruginosa” value [4] is reported as 6.2 µg/mL (≈ 2.43 µM). The “MIC B cereus” value [5] was 12.5 µg/mL (≈ 4.91 µM).

In the case of `CCCC[C@H](NC(=O)[C@]1(C)CCCC=CCCC[C@](C)(NC(=O)[C@H](C)NC(=O)[C@H](CCCCN)NC(=O)CNC(=O)[C@H](Cc2ccccc2)NC(=O)[C@H](CCCCN)NC(=O)[C@H](CCCNC(=N)N)NC(=O)[C@H](CCCCN)NC(=O)[C@H](CO)NC(=O)[C@H](Cc2c[nH]cn2)NC(=O)[C@]2(C)CCCC=CCCC[C@](C)(NC(=O)CN)C(=O)NCC(=O)N[C@@H](CCCNC(=N)N)C(=O)N[C@@H](Cc3ccccc3)C(=O)N2)C(=O)N[C@@H](C(C)C)C(=O)NCC(=O)N[C@@H](CCC(=O)O)C(=O)N1)C(=O)N[C@@H](CC(N)=O)C(=O)N[C@@H](CO)C(N)=O` [Mag(i+4)1,15(A9K, K4R, K10R), GXGRFXHSKRKFGKAXVGEXBNS] (H-G[S5]GRF[S5]HSKRKFGKA[S5]VGE[S5][Nle]NS-NH2; staple 2-6, 16-20), the “MIC E coli” value [2] is reported as 3.1 µg/mL (≈ 1.2 µM), the “MIC S aureus” value [3] is reported as >50 µg/mL and the “MIC P aeruginosa” value [4] is reported as 6.2 µg/mL (≈ 2.41 µM). For the same molecule, the “MIC B cereus” value [5] was 12.5 µg/mL (≈ 4.85 µM).

Colistin [reference compound] was tested, and the “Antimicrobial Activity MIC” value ([6]; A. baumannii CDC Bank# 275) was 1 µg/mL, the “Antimicrobial Activity MIC” value ([6]; A. baumannii CDC Bank# 276) was 2 µg/mL and the “Antimicrobial Activity MIC” value ([6]; A. baumannii CDC Bank# 277) was 1 µg/mL. The “Antimicrobial Activity MIC” value ([6]; A. baumannii CDC Bank# 278) was 1 µg/mL, the “Antimicrobial Activity MIC” value ([6]; A. baumannii CDC Bank# 279) was 1 µg/mL and the “Antimicrobial Activity MIC” value ([6]; A. baumannii CDC Bank# 280) was 1 µg/mL. The “Antimicrobial Activity MIC” value ([6]; A. baumannii CDC Bank# 281) was 1 µg/mL, the “Antimicrobial Activity MIC” value ([6]; A. baumannii CDC Bank# 282) was 0.5 µg/mL and the “Antimicrobial Activity MIC” value ([6]; A. baumannii CDC Bank# 283) was 1 µg/mL. For the same molecule, the “Antimicrobial Activity MIC” value ([6]; A. baumannii CDC Bank# 284) was 1 µg/mL, the “Antimicrobial Activity MIC” value ([6]; A. baumannii CDC Bank# 285) was 1 µg/mL and the “Antimicrobial Activity MIC” value ([6]; A. baumannii CDC Bank# 286) was 0.5 µg/mL. The “Antimicrobial Activity MIC” value ([6]; A. baumannii CDC Bank# 287) was 1 µg/mL, the “Antimicrobial Activity MIC” value ([6]; A. baumannii CDC Bank# 288) was >8 µg/mL and the “Antimicrobial Activity MIC” value ([6]; A. baumannii CDC Bank# 289) was 2 µg/mL. The “Antimicrobial Activity MIC” value ([6]; A. baumannii CDC Bank# 290) was 1 µg/mL, the “Antimicrobial Activity MIC” value ([6]; A. baumannii CDC Bank# 291) was 1 µg/mL and the “Antimicrobial Activity MIC” value ([6]; A. baumannii CDC Bank# 292) was 1 µg/mL. The “Antimicrobial Activity MIC” value ([6]; A. baumannii CDC Bank# 293) was 0.5 µg/mL, the “Antimicrobial Activity MIC” value ([6]; A. baumannii CDC Bank# 294) was 1 µg/mL and the “Antimicrobial Activity MIC” value ([6]; A. baumannii CDC Bank# 295) was 1 µg/mL. For the same molecule, the “Antimicrobial Activity MIC” value ([6]; A. baumannii CDC Bank# 296) was 0.5 µg/mL, the “Antimicrobial Activity MIC” value ([6]; A. baumannii CDC Bank# 297) was 1 µg/mL and the “Antimicrobial Activity MIC” value ([6]; A. baumannii CDC Bank# 298) was 0.5 µg/mL. The “Antimicrobial Activity MIC” value ([6]; A. baumannii CDC Bank# 299) was 2 µg/mL, the “Antimicrobial Activity MIC” value ([6]; A. baumannii CDC Bank# 300) was 1 µg/mL and the “Antimicrobial Activity MIC” value ([6]; A. baumannii CDC Bank# 301) was 0.5 µg/mL. The “Antimicrobial Activity MIC” value ([6]; A. baumannii CDC Bank# 302) was 2 µg/mL, the “Antimicrobial Activity MIC” value ([6]; A. baumannii CDC Bank# 303) was >8 µg/mL and the “Antimicrobial Activity MIC” value ([6]; A. baumannii CDC Bank# 304) was 4 µg/mL. For the same molecule, the “Antimicrobial Activity MIC” value ([6]; A. baumannii CDC Bank# 305) was 1 µg/mL, the “Antimicrobial Activity MIC” value ([6]; A. baumannii CDC Bank# 306) was 1 µg/mL and the “Antimicrobial Activity MIC” value ([6]; A. baumannii CDC Bank# 307) was >8 µg/mL. The “Antimicrobial Activity MIC” value ([6]; A. baumannii CDC Bank# 308) was 8 µg/mL, the “Antimicrobial Activity MIC” value ([6]; A. baumannii CDC Bank# 309) was 8 µg/mL and the “Antimicrobial Activity MIC” value ([6]; A. baumannii CDC Bank# 310) was 8 µg/mL. For the same molecule, the “Antimicrobial Activity MIC” value ([6]; A. baumannii CDC Bank# 311) was 1 µg/mL, the “Antimicrobial Activity MIC” value ([6]; A. baumannii CDC Bank# 312) was 0.5 µg/mL and the “Antimicrobial Activity MIC” value ([6]; A. baumannii CDC Bank# 313) was 1 µg/mL. For the same molecule, the “Antimicrobial Activity MIC” value ([7]; E. coli CDC Bank# 346, contains MCR-1 plasmid) was 2.5 µg/mL and the “Antimicrobial Activity MIC” value ([7]; E. coli CDC Bank# 349, contains MCR-1 plasmid) was 1.2 µg/mL.
